Patent publication US9056847B2, “Activity based probes (ABPs) interacting with glycosidases” (ACADEMISCH MEDISCH CENTRUM BIJ UNIVERSITEIT VAN AMSTERDAM, priority 2010, dated 2015)
Where two headings read alike, the source gives them in different places.

Key:
GBA [1] = target: T1, GBA (Homo sapiens (Human), UniProt P04062, R534H); experiment: Continuous substrate release assay for inhibition constants; assay type: biochemical; details: for Ki: equilibrium constant for initial binding; for Ki / ki: reported with s.e.m.; for ki: rate constant; for ki/Ki: relative rate constant
T1 sequence (P04062 40-536 R534H): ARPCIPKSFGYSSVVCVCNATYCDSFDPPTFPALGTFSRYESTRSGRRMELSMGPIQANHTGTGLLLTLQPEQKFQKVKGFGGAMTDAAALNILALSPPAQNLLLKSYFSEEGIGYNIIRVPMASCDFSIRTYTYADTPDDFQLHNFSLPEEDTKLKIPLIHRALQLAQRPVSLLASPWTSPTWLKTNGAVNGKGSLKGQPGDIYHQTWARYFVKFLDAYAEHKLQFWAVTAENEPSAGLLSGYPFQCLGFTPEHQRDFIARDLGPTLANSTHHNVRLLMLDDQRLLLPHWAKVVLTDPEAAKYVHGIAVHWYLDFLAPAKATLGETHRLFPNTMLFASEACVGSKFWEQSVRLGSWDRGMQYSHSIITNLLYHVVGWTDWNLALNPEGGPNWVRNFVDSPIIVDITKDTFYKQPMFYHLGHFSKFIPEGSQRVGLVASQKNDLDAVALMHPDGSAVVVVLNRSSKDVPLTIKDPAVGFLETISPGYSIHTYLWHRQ
Excerpt: Previously discontinuous methods have been used to determine the inhibition constants of glycosidase inhibitors. […] Therefore the inhibition constants have been determined in a continuous substrate assay which was first described in 1982 (2) and has recently been reappraised in 2010 (3). In these experiments, inhibition of the enzyme and hydrolysis of the substrate proceed concurrently making the situation slightly more complex than the discontinuous (FIG. 39 Scheme 2). The time-dependent interaction of inhibitor (I) with free β-glucosidase (E) was considered to occur in separate stages (A). A rapid reversible interaction is followed by a slower, irreversible reaction that transforms the reversible enzyme-inhibitor complex (EI) into an irreversible enzyme-inhibitor complex (EI*) (FIG. 39 Scheme 2). Progress curves were obtained (FIG. 28a) and apparent rate constant k′ was plotted versus the concentration (FIG. 28b) to obtain estimates of the Ki (equilibrium constant) and ki (rate constant)
To 100 μL McIlvaine buffer (pH 5.2, 0.2% sodium taurocholate, 0.1% Triton X-100) containing 4-methylumbelliferyl β-D-glucoside (7.5 mM) in Greiner flat bottom black 96-well plate was added 5 μL inhibitor (25× stock in DMSO). The resulting mixture was preincubated at 37° C. for 15 min in a TECAN GENios microplate reader. GBA (2 ng) in McIlvaine buffer (20 μL pH 5.2, 0.2% sodium taurocholate, 0.1% Triton X-100) was preheated to 37° C. for 15 min before being added to the substrate mix. The resulting solution was mixed by horizontal shaking for 15 sec, after which release 4-methylumbelliferyl measured with a TECAN GENios platereader (λex 340 nm and λem 465 nm) for the indicated time. Bleaching of the fluorophore, which was observed during the assay, was corrected by subtracting blanks (100 μL substrate buffer, 5 μL DMSO, 20 μL McIlvaine buffer). Apparent rate constants k′ were obtained by fitting the resulting progress curves (FIG. 28A) to the one-phase association equitation y (y max y0)(1−exp^−kt)yo+in GraphPad Prism version 5.00 for Windows, GraphPad Software, San Diego Calif. USA, www.graphpad.com. Measurements were performed in nine fold and plotting of the obtained k′ values versus [^I0] yielded rectangular hyperbolar functions (FIG. 28B).
[formula] estimates of Ki app and ki were obtained. The Ki value in the absence of substrate was obtained by correcting the Ki app with […]

GBA [2] = target: T1, GBA; experiment: GBA enzyme activity assay with 4-methylumbelliferyl β-D-glucopyranoside, inhibitor preincubated 30 min (apparent IC50); assay type: biochemical
GBA [3] = target: T2, GBA (Homo sapiens (Human), UniProt P04062); experiment: Time-lapse microscopy of GBA labeling in intact fibroblasts; assay type: cell-based; details: 5 nM
T2 sequence (P04062 40-536): as the sequence (P04062 40-536 R534H) above, with H495R counted along it
Experimental: (§1) We next studied the labeling of GBA by MDW941 in intact fibroblasts using time-lapse microscopy. […] As a control, matched mice received the buffer solution intravenously. […] In addition to GBA, MDW933 clearly labeled other proteins that occur in the intestine in the mouse.
(§2) With the 37° C., 10% CO2 incubator enclosing the microscope, cells were imaged every 5 min for 2 hours simultaneously using fluorescence microscopy with an N2.1 filter block and phase-contrast brightfield microscopy (Leica IR-BE with Z-motor drive and a Plan APO 63×/1.40 oil immersion objective (Leica Microsystems, Rijswijk, The Netherlands), equipped with a KX85 camera, Apogee Instruments, Auburn, Calif., USA). […] An auto-focus routine was applied during acquisition. Images were analyzed using TimeLapseAVI 5.1.4 software (©Ron Hoebe, CMO, AMC, University of Amsterdam, The Netherlands; R.A.Hoebe@amc.uva.nl).

GBA1 = GBA1 (Homo sapiens (Human), UniProt P04062); experiment: Kinetic constants of GBA1 inhibition (Table 2); assay type: biochemical; details: Table 2 kinetic constants
Chain of GBA1 (P04062 40-536): as the sequence (P04062 40-536 R534H) above, with H495R counted along it

fibroblasts = experiment: Toxicity monitoring by live-cell imaging of fibroblasts; assay type: cell-based, human; details: after 100 h of exposure
Experimental: as §1
as §2, with “cells were imaged every 5 min for 2 hours simultaneously using fluorescence” left out

GBA [4] = target: T1, GBA; experiment: Reversibility of isofagomine competition for active site labeling; assay type: biochemical; details: pH 5.2, wash before labeling with MDW933 (10 nM for 15 min)
N370S GBA = N370S GBA (Homo sapiens (Human), UniProt P04062, N370S); experiment: Chaperone experiment using isofagomine in N370S GBA fibroblasts; assay type: cell-based; details: 7 d, 0, 10, 30 and 300 nM
Chain of N370S GBA (P04062 40-536 N409S): as the sequence (P04062 40-536 R534H) above, with N370S, H495R counted along it

GBA [5] = target: T2, GBA; experiment: Fluorescence microscopy of probe-labeled fibroblasts; assay type: cell-based; details: 5 nM, 2 h
Experimental: We studied in situ labeling of GBA in cells using fluorescence-activated cell sorting (FACS) analysis. We first preincubated cells in the absence or presence of CBE and subsequently incubated the cells with a subsaturating or an excess amount of the green fluorescent probe 5. […] These positive results prompted us to analyze labeling of the cells with fluorescence microscopy (FIG. 25c-f). […] We also detected GBA protein by indirect immunofluorescence using the specific anti-GBA monoclonal antibody 8E4 (ref. 29). Using multispectral image analysis, we could specifically distinguish the respective fluorescent emission spectra (FIG. 25d-e) from autofluorescent background (FIG. 25c). […] As probes with a hydrophobic BODIPY moiety might nonspecifically be retained in membranes, in particular the plasma membrane, we studied this possibility more closely. […] These control probes did inhibit GBA in vitro with IC^50 values of 41 and 95 μM, respectively. However, inhibition is presumably reversible.
Fibroblasts were cultured on glass slides. […] Next, cells were washed, fixed with 3% (v/v) paraformaldehyde in PBS for 15 min, washed and incubated first with 0.05% (w/v) saponine for 15 min, next with 0.1 mM NH4Cl in PBS for 10 min and then with 3% (w/v) bovine serum albumin in PBS for 1 h. Next, the slides were incubated with anti-GBA monoclonal antibody 8E4 (1:500). […]

lactase = experiment: Lactose competition of MDW933 labeling in intestinal homogenates; assay type: biochemical, mouse; details: lactose 250 mM
Excerpt: FIG. 32 Indenfication of the 160 kDa protein. […] (b) Quantification of the observed fluorescent signal. Data represent mean values±s.d.

GBA [6] = target: T1, GBA; experiment: Competition assay for labeling of recombinant GBA with MDW933; assay type: biochemical; details: 2 mM, 30 min
[7] = recombinant GBA, in vitro, read-out: apparent half-maximal inhibitory concentration (IC50)
[8] = rec. GBA1, 30 min, 37 C., pH 5.2 + Tch, Tr, read-out: Apparent IC50 (nM) rec. GBA1: 30 min, 37 C., pH 5.2 + Tch, Tr

| Compound | Ki (GBA [1]) [nM] | ki (GBA [1]) [min⁻¹] | ki/Ki (GBA [1]) [M⁻¹ s⁻¹] | IC50 (GBA [2]; [7]) [nM] | Ki (GBA1) [nM] | also measured |
| --- | --- | --- | --- | --- | --- | --- |
| OC[C@@H]1[C@@H](O)[C@H](O)[C@@H](O)[C@@H]2O[C@H]12 [Cyclophellitol 3, cyclophellitol, reference compound] | 152 ± 26 | 0.078 ± 0.010 | 8570 | 150 ± 9 |  |  |
| Cc1cc(=O)oc2cc(O[C@@H]3O[C@H](CO)[C@@H](O)[C@H](O)[C@H]3O)ccc12 [4-methylumbelliferyl β-D-glucoside, reference compound] |  |  |  |  |  | Km (GBA [1]): 1200 µM |
| OC[C@H]1CNC[C@@H](O)[C@@H]1O [isofagomine] |  |  |  |  |  | reversibility of competition for the active site (GBA [4]): fully reversible; GBA enzyme activity in cell homogenates (N370S GBA): modest isofagomine dose-dependent increase; fluorescent MDW941-labeled GBA quantified on gel (N370S GBA): modest dose-dependent increase |
| OC[C@H]1O[C@@H](O[C@H]2[C@H](O)[C@@H](O)C(O)O[C@@H]2CO)[C@H](O)[C@@H](O)[C@H]1O (stereo partly shown) [lactose] |  |  |  |  |  | reduction of labeling of the high-molecular weight protein in the intestinal fraction (lactase): < 90% |
| [N-]=[N+]=NC[C@@H]1[C@@H](O)[C@H](O)[C@@H](O)[C@@H]2O[C@H]12 [KY170, (2S,3R,4S,5S)-8-azido-8-deoxy-cyclophellitol] | 44 ± 7 | 0.035 ± 0.003 | 13200 | 120 ± 4 | 83 | IC50 (GBA [2]; [8]): 150 ± 30 nM |
| O[C@H]1[C@H](O)[C@@H](O)[C@@H]2O[C@@H]2[C@@H]1O [CBE, Conduritol B-epoxide, reference compound] | 53000 ± 10800 | 0.217 ± 0.026 | 67 |  | 7730 | effect of preincubation on labeling with MDW933 (GBA [6]): blocked labeling completely; ki (GBA1): 0.0244 min⁻¹; IC50 (GBA [2]; [8]): 12000 nM |

More lines, main results first:

| Ki (GBA [1]) [nM] | ki (GBA [1]) [min⁻¹] | ki/Ki (GBA [1]) [M⁻¹ s⁻¹] | IC50 (GBA [2]; [7]) [nM] | Ki (GBA1) [nM] | Compound | also measured |
| --- | --- | --- | --- | --- | --- | --- |
| 8 ± 3 | 0.208 ± 0.063 | 418300 |  | 1.56 | COc1ccc(C2=[N+]3C(=C(CCCCc4cn(C[C@@H]5[C@@H](O)[C@H](O)[C@@H](O)[C@@H]6O[C@H]56)nn4)c4ccc(-c5ccc(OC)cc5)n4[B-]3(F)F)C=C2)cc1 [MDW941] | time to maximum labeling (GBA [3]): ≤ 15 min; ki (GBA1): 0.0236 min⁻¹; IC50 (GBA [2]; FIG. 16, ABPs designed for GBA1, read-out: IC50): 2 nM; IC50 (GBA [2]; recombinant GBA, read-out: apparent half-maximal inhibitory concentration (IC50)): 1.94 ± 0.08 nM; signs of apoptosis or toxicity (fibroblasts): did not show any signs of apoptosis or toxicity |
|  |  |  | 41000 |  | CC1=CC(C)=[N+]2C1=C(CCCCc1cn(C[C@H]3C=C[C@H](O)[C@@H](O)[C@@H]3O)nn1)c1c(C)cc(C)n1[B-]2(F)F [MDW1064] |  |
|  |  |  | 95000 |  | COc1ccc(C2=[N+]3C(=C(CCCCc4cn(C[C@H]5C=C[C@H](O)[C@@H](O)[C@@H]5O)nn4)c4ccc(-c5ccc(OC)cc5)n4[B-]3(F)F)C=C2)cc1 [MDW1065] | labeling of fibroblasts (GBA [5]): hardly any detectable labeling |
